From patent US20250339569A1, “CARBONIC ANHYDRASE IX LIGANDS” (priority 2021, published 2025)
Starred links: 1 amine or outer side, 2 acyl side, 3 side chain; linkers in the order of their positions; H or OH if unused. Positions of bridges follow the written chain, without caps; N, C: chain ends. Non-standard residues stand in square brackets, D forms with d. Residues, ends and D or L forms follow the SMILES beside them. ξ: configuration not given here. *: point of attachment. X3 = O=C(O)CN1CCN(CC(=O)O)CCN(CC(=O)NCCCOCCOCCOCCCN*)CCN(CC(=O)O)CC1; Trp(5-Cl) = N[C@@H](Cc1c[nH]c2ccc(Cl)cc12)C(=O)O; Trp(5-OH) = N[C@@H](Cc1c[nH]c2ccc(O)cc12)C(=O)O; ξTrp(5-Me) = Cc1ccc2[nH]cc(CC(N)C(=O)O)c2c1; mXylylene = c1cc(C[*:1])cc(C[*:2])c1; Hydrocinnamoyl = O=C(CCc1ccccc1)*; tBuAla = CC(C)(C)C[C@H](N)C(=O)O; Pen = CC(C)(S)[C@H](N)C(=O)O; Suc = O=C(CCC(=O)[*:2])[*:1]; Tle = CC(C)(C)[C@H](N)C(=O)O; Isovaleryl = CC(C)CC(=O)*; Hexanoyl = CCCCCC(=O)*; PhAc = O=C(Cc1ccccc1)*; Bz = O=C(c1ccccc1)*; Sar = CNCC(=O)O

These molecules were tested against T1, CAIX-expressing human HT-29 colorectal cancer cells (Homo sapiens, UniProt Q16790) (assay: FACS binding assay (IC50 determination, competition with tracer 3BP-2776 or 3BP-4149)). Details: not given.
T1 construct: CAIX-expressing human HT-29 colorectal cancer cells; host or cells: HT-29 human colorectal cancer cells
Protocol: In order to determine binding of compounds according to the present invention to CAIX-expressing cells, a FACS binding assay was established.
CAIX-expressing human HT-29 colorectal cancer cells (DSMZ, RRID: CVCL_0320) were cultured in McCoys's 5A modified medium (Biochrom, #F1015) including 10% fetal calf serum (FCS), 2 mM L-glutamine, 100 U/ml penicillin and 100 μg/mL streptomycin. Cells were detached with Accutase (Biolegend, #423201) and washed in FACS buffer (PBS including 1% FCS). Cells were diluted in FACS buffer to a final concentration of 500.000 cells per ml. 200 μL of the cell suspension were transferred to a u-shaped non-binding 96-well plate (Greiner) and cells were washed in ice-cold FACS buffer.
When biotinylated compounds were used an additional incubation step with 1 μg/mL APC-Streptavidin (Miltenyi; #130-106-791) in 50 μL FACS buffer for 30 minutes on ice was performed.
Cells were washed twice with ice-cold FACS buffer and analyzed in an Attune NxT flow cytometer (Thermo Fisher). Median fluorescence intensities (MFI) of the APC/Cy5-channel were calculated by Attune NxT software. MFI values were plotted against peptide concentration and four parameter logistic (4PL) curve fitting and EC50/pEC50 or IC50/pIC50 calculations were performed using ActivityBase software.
CC(C)C[C@@H]1NC(=O)[C@H](Cc2c[nH]c3ccccc23)NC(=O)[C@H](CC(=O)O)NC(=O)CNC(=O)[C@H](CCC(=O)O)NC(=O)[C@@H](NC(=O)[C@H](Cc2ccc(O)cc2)NC(=O)[C@@H](NC(=O)c2ccccc2)C(C)C)CSCc2cccc(c2)CSC[C@@H](C(N)=O)NC(=O)[C@H](CCC(N)=O)NC(=O)[C@H](Cc2c[nH]c3ccccc23)NC(=O)[C@H]([C@@H](C)O)NC1=O [3BP-3108] (Bz-VYCEGDWLTWQC-NH2; linker 3-12 via mXylylene) was tested, and the IC50 was < 10 nM.
With CC(C)C[C@@H]1NC(=O)[C@H](Cc2c[nH]c3ccccc23)NC(=O)[C@H](CC(=O)O)NC(=O)CNC(=O)[C@H](CCC(=O)O)NC(=O)[C@@H](NC(=O)[C@H](Cc2ccc(O)cc2)NC(=O)[C@@H](NC(=O)Cc2ccccc2)C(C)C)CSCc2cccc(c2)CSC[C@@H](C(N)=O)NC(=O)[C@H](CCC(N)=O)NC(=O)[C@H](Cc2c[nH]c3ccccc23)NC(=O)[C@H]([C@@H](C)O)NC1=O [3BP-3109] (PhAc-VYCEGDWLTWQC-NH2; linker 3-12 via mXylylene) the IC50 was < 10 nM.

Same assay, conditions: FACS competition on HT-29 cells, Tracer ID 3BP-2776 (10 nM, biotin-labeled), 4° C., 1 hour; read-out: pIC50 category (activity) (converted)
For CC(=O)N[C@H](C(=O)N[C@@H](Cc1ccc(O)cc1)C(=O)N[C@H]1CSCc2cccc(c2)CSC(C)(C)[C@@H](C(N)=O)NC(=O)[C@H](CCC(N)=O)NC(=O)[C@H](Cc2c[nH]c3ccccc23)NC(=O)[C@H]([C@@H](C)O)NC(=O)[C@H](CC(C)C)NC(=O)[C@H](Cc2c[nH]c3ccccc23)NC(=O)[C@H](CC(=O)O)NC(=O)CNC(=O)[C@H](CCC(=O)O)NC1=O)C(C)C [3BP-3064] (Ac-VYCEGDWLTWQ[Pen]-NH2; linker 3-12 via mXylylene), the IC50 was < 10 nM.
With CC(=O)N[C@H](C(=O)N[C@@H](Cc1ccc(O)cc1)C(=O)N[C@H]1CSCc2cccc(c2)CSC[C@@H](C(N)=O)NC(=O)[C@H](CCC(N)=O)NC(=O)[C@H](Cc2c[nH]c3ccccc23)NC(=O)[C@H]([C@@H](C)O)NC(=O)[C@H](CC(C)(C)C)NC(=O)[C@H](Cc2c[nH]c3ccccc23)NC(=O)[C@H](CC(=O)O)NC(=O)CNC(=O)[C@H](CCC(=O)O)NC1=O)C(C)C [3BP-3065] (Ac-VYCEGDW[tBuAla]TWQC-NH2; linker 3-12 via mXylylene) the IC50 was < 10 nM.
Work on CC(=O)N[C@H](C(=O)N[C@@H](Cc1ccc(O)cc1)C(=O)N[C@H]1CSCc2cccc(c2)CSC[C@@H](C(N)=O)NC(=O)[C@H](CCC(N)=O)NC(=O)[C@H](Cc2c[nH]c3ccccc23)NC(=O)[C@H]([C@@H](C)O)NC(=O)[C@H](C(C)(C)C)NC(=O)[C@H](Cc2c[nH]c3ccccc23)NC(=O)[C@H](CC(=O)O)NC(=O)CNC(=O)[C@H](CCC(=O)O)NC1=O)C(C)C [3BP-3066] (Ac-VYCEGDW[Tle]TWQC-NH2; linker 3-12 via mXylylene) yielded an IC50 of 10 to 79.4 nM.
For CCCCCC(=O)N[C@H](C(=O)N[C@@H](Cc1ccc(O)cc1)C(=O)N[C@H]1CSCc2cccc(c2)CSC[C@@H](C(N)=O)NC(=O)[C@H](CCC(N)=O)NC(=O)[C@H](Cc2c[nH]c3ccccc23)NC(=O)[C@H]([C@@H](C)O)NC(=O)[C@H](CC(C)C)NC(=O)[C@H](Cc2c[nH]c3ccccc23)NC(=O)[C@H](CC(=O)O)NC(=O)CNC(=O)[C@H](CCC(=O)O)NC1=O)C(C)C [3BP-3107] (Hexanoyl-VYCEGDWLTWQC-NH2; linker 3-12 via mXylylene), the IC50 was < 10 nM.
In the case of CC(C)C[C@@H]1NC(=O)[C@H](Cc2c[nH]c3ccccc23)NC(=O)[C@H](CC(=O)O)NC(=O)CNC(=O)[C@H](CCC(=O)O)NC(=O)[C@@H](NC(=O)[C@H](Cc2ccc(O)cc2)NC(=O)[C@@H](NC(=O)CCc2ccccc2)C(C)C)CSCc2cccc(c2)CSC[C@@H](C(N)=O)NC(=O)[C@H](CCC(N)=O)NC(=O)[C@H](Cc2c[nH]c3ccccc23)NC(=O)[C@H]([C@@H](C)O)NC1=O [3BP-3110] (Hydrocinnamoyl-VYCEGDWLTWQC-NH2; linker 3-12 via mXylylene), the IC50 is reported as < 10 nM.
For CC(C)CC(=O)N[C@H](C(=O)N[C@@H](Cc1ccc(O)cc1)C(=O)N[C@H]1CSCc2cccc(c2)CSC[C@@H](C(N)=O)NC(=O)[C@H](CCC(N)=O)NC(=O)[C@H](Cc2c[nH]c3ccccc23)NC(=O)[C@H]([C@@H](C)O)NC(=O)[C@H](CC(C)C)NC(=O)[C@H](Cc2c[nH]c3ccccc23)NC(=O)[C@H](CC(=O)O)NC(=O)CNC(=O)[C@H](CCC(=O)O)NC1=O)C(C)C [3BP-3111] (Isovaleryl-VYCEGDWLTWQC-NH2; linker 3-12 via mXylylene), the IC50 was < 10 nM.
With CC(C)C[C@@H]1NC(=O)[C@H](Cc2c[nH]c3ccccc23)NC(=O)[C@H](CC(=O)O)NC(=O)[C@@H](C)NC(=O)[C@H](CCC(=O)O)NC(=O)[C@@H](NC(=O)[C@H](Cc2ccc(O)cc2)NC(=O)[C@@H](NC(=O)CCC(=O)NCCCOCCOCCOCCCNC(=O)CN2CCN(CC(=O)O)CCN(CC(=O)O)CCN(CC(=O)O)CC2)C(C)C)CSCc2cccc(c2)CSC[C@@H](C(N)=O)NC(=O)[C@H](CCC(N)=O)NC(=O)[C@H](Cc2c[nH]c3ccccc23)NC(=O)[C@H]([C@@H](C)O)NC1=O [3BP-3270] ({X3-Suc}-VYCE[dA]DWLTWQC-NH2; linker 3-12 via mXylylene) the IC50 was < 10 nM.
CC(C)C[C@@H]1NC(=O)[C@H](Cc2c[nH]c3ccccc23)NC(=O)[C@H](CC(=O)O)NC(=O)CN(C)C(=O)[C@H](CCC(=O)O)NC(=O)[C@@H](NC(=O)[C@H](Cc2ccc(O)cc2)NC(=O)[C@@H](NC(=O)CCC(=O)NCCCOCCOCCOCCCNC(=O)CN2CCN(CC(=O)O)CCN(CC(=O)O)CCN(CC(=O)O)CC2)C(C)C)CSCc2cccc(c2)CSC[C@@H](C(N)=O)NC(=O)[C@H](C)NC(=O)[C@H](Cc2c[nH]c3ccccc23)NC(=O)[C@H]([C@@H](C)O)NC1=O [3BP-3278] ({X3-Suc}-VYCE[Sar]DWLTWAC-NH2; linker 3-12 via mXylylene) was tested, and the IC50 was 10 to 79.4 nM.
For CC(=O)N[C@H](C(=O)N[C@@H](Cc1ccc(O)cc1)C(=O)N[C@H]1CSCc2cccc(c2)CSC[C@@H](C(N)=O)NC(=O)CNC(=O)[C@H](Cc2c[nH]c3ccccc23)NC(=O)[C@H]([C@@H](C)O)NC(=O)[C@H](CC(C)C)NC(=O)[C@H](Cc2c[nH]c3ccccc23)NC(=O)[C@H](CC(=O)O)NC(=O)[C@@H](C)NC(=O)[C@H](CCC(=O)O)NC1=O)C(C)C [3BP-3284] (Ac-VYCE[dA]DWLTWGC-NH2; linker 3-12 via mXylylene), the IC50 was < 10 nM.
For CC(=O)N[C@H](C(=O)N[C@@H](Cc1ccc(O)cc1)C(=O)N[C@H]1CSCc2cccc(c2)CSC[C@@H](C(N)=O)NC(=O)[C@H](CCC(N)=O)NC(=O)[C@H](Cc2c[nH]c3ccccc23)NC(=O)[C@H]([C@@H](C)O)NC(=O)[C@H](CC(C)C)NC(=O)C(Cc2c[nH]c3ccc(C)cc23)NC(=O)[C@H](CC(=O)O)NC(=O)CN(C)C(=O)[C@H](CCC(=O)O)NC1=O)C(C)C (some centres unmarked) [3BP-3290] (Ac-VYCE[Sar]D[ξTrp(5-Me)]LTWQC-NH2; linker 3-12 via mXylylene), the IC50 was < 10 nM.
CC(=O)N[C@H](C(=O)N[C@@H](Cc1ccc(O)cc1)C(=O)N[C@H]1CSCc2cccc(c2)CSC[C@@H](C(N)=O)NC(=O)CNC(=O)[C@H](Cc2c[nH]c3ccccc23)NC(=O)[C@H]([C@@H](C)O)NC(=O)[C@H](CC(C)C)NC(=O)[C@H](Cc2c[nH]c3ccccc23)NC(=O)[C@H](CC(=O)O)NC(=O)CN(C)C(=O)[C@H](CCC(=O)O)NC1=O)C(C)C [3BP-3304] (Ac-VYCE[Sar]DWLTWGC-NH2; linker 3-12 via mXylylene) was tested, and the IC50 was < 10 nM.
For CC(=O)N[C@H](C(=O)N[C@@H](Cc1ccc(O)cc1)C(=O)N[C@H]1CSCc2cccc(c2)CSC[C@@H](C(N)=O)NC(=O)[C@H](CCC(N)=O)NC(=O)[C@H](Cc2c[nH]c3ccccc23)NC(=O)CNC(=O)[C@H](CC(C)C)NC(=O)[C@H](Cc2c[nH]c3ccccc23)NC(=O)[C@H](CC(=O)O)NC(=O)CN(C)C(=O)[C@H](CCC(=O)O)NC1=O)C(C)C [3BP-3307] (Ac-VYCE[Sar]DWLGWQC-NH2; linker 3-12 via mXylylene), the IC50 was < 10 nM.
In the case of CC(=O)N[C@H](C(=O)N[C@@H](Cc1ccc(O)cc1)C(=O)N[C@H]1CSCc2cccc(c2)CSC[C@@H](C(N)=O)NC(=O)[C@H](CCC(N)=O)NC(=O)[C@H](Cc2c[nH]c3ccccc23)NC(=O)[C@@H](C)NC(=O)[C@H](CC(C)C)NC(=O)[C@H](Cc2c[nH]c3ccccc23)NC(=O)[C@H](CC(=O)O)NC(=O)CN(C)C(=O)[C@H](CCC(=O)O)NC1=O)C(C)C [3BP-3309] (Ac-VYCE[Sar]DWL[dA]WQC-NH2; linker 3-12 via mXylylene), the IC50 is reported as 100 to 794 nM.
Work on CC(=O)N[C@H](C(=O)N[C@@H](Cc1ccc(O)cc1)C(=O)N[C@H]1CSCc2cccc(c2)CSC[C@@H](C(N)=O)NC(=O)[C@H](CCC(N)=O)NC(=O)[C@H](Cc2c[nH]c3ccccc23)NC(=O)[C@H]([C@@H](C)O)NC(=O)[C@H](CC(C)C)NC(=O)[C@H](Cc2c[nH]c3ccc(O)cc23)NC(=O)[C@H](CC(=O)O)NC(=O)CN(C)C(=O)[C@H](CCC(=O)O)NC1=O)C(C)C [3BP-3310] (Ac-VYCE[Sar]D[Trp(5-OH)]LTWQC-NH2; linker 3-12 via mXylylene) yielded an IC50 of 100 to 794 nM.
CC(=O)N[C@H](C(=O)N[C@@H](Cc1ccc(O)cc1)C(=O)N[C@H]1CSCc2cccc(c2)CSC[C@@H](C(N)=O)NC(=O)[C@H](CCC(N)=O)NC(=O)[C@H](Cc2c[nH]c3ccc(Cl)cc23)NC(=O)[C@H]([C@@H](C)O)NC(=O)[C@H](CC(C)C)NC(=O)[C@H](Cc2c[nH]c3ccccc23)NC(=O)[C@H](CC(=O)O)NC(=O)CN(C)C(=O)[C@H](CCC(=O)O)NC1=O)C(C)C [3BP-3312] (Ac-VYCE[Sar]DWLT[Trp(5-Cl)]QC-NH2; linker 3-12 via mXylylene) gave an IC50 of 100 to 794 nM.
